Measurements as given in patent publication US10610529B2, “Trabectedin-inclusive injectable pharmaceutical composition for gastrointestinal external use and a method for manufacturing the same” (priority 2016, dated 2020).

Key:
[1] = cited from earlier work
[2] = cited from earlier work; remark: listed apart in the source
[3] = Measurement of related substances and placement stability of lyophilized formulation (accelerated and long-term conditions); assay type: physicochemical; details: API, no storage item given
Description: The above intermediate solution was lyophilized to prepare a lyophilized trabectedin formulation. The appearance, water content, reconstitution and pH were investigated. The change of related substances after lyophilization and the placement stability under accelerated conditions (25° C. 60% RH) and long-term conditions (2-8° C.) were measured.
The above lyophilized formulations were stored under accelerated conditions (25° C. 60% RH), and the related substances and water content were measured at different time points.

[4] = High-temperature stability of lyophilized products comprising different ratios of glucose/dextran 40; assay type: physicochemical; details: API, no storage time given

## COc1cc2c(cc1O)CCN[C@]21CS[C@@H]2c3c(OC(C)=O)c(C)c4c(c3[C@H](COC1=O)N1[C@@H]2[C@H]2c3c(cc(C)c(OC)c3O)C[C@@H]([C@@H]1O)N2C)OCO4 [API, Trabectedin]
[1]; refrigerated at 5° C.
  storage time: ≤ 1 month
[1]; room temperature (25° C.)
  thermal stability: rapidly degrades
[2]
  solubility in pure water: limited
[3]
  ET-745 (%): 0.25%
  ET-759B (%): 0.31%
  Total impurities (%): 2.56%
[4]
  ET-745 (%): 0.25%
  ET-759B (%): 0.31%
  Total impurities (%): 2.56%
